Results as given in patent US6355799B1, “Substituted benzene compounds, process for their preparation, and herbicidal and defoliant compositions containing them” (ISK Americas Incorporated, priority 1997, dated 2002).

Tests used:
Assay type in all cases: in vivo
[1] = tested on: redroot pigweed (Amaranthus retroflexus, AMARE); assay: Post-emerge test, greenhouse herbicide activity screening; conditions: phytotoxicity rating 0-100 (0 no damage, 100 complete death), 14 days after application
In short: (§1)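 Fourteen days after spraying, crop and weed injury was graded visually from 0, no effect, to 100, every plant dead. Test substances were dissolved in acetone and applied at 15–1000 g ai/ha with a flat-fan nozzle. Application was either pre-emergence, one day after sowing, or post-emergence at the 2–3 leaf stage.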

[2] = tested on: green foxtail (Setaria viridis, SETVI); assay: as above; conditions: phytotoxicity rating 0-100 (0 no damage, 100 complete death), 14 days after application
In short: as §1

[3] = tested on: large crabgrass (Digitaria sanguinalis, DIGSA); assay: as above; conditions: phytotoxicity rating 0-100 (0 no damage, 100 complete death), 14 days after application
In short: as §1

[4] = tested on: common ragweed (Ambrosia artemisizfolia L., AMBEL); assay: as above; conditions: 250 g ai/ha; phytotoxicity rating 0-100 (0 no damage, 100 complete death), 14 days after application
In short: as §1

[5] = tested on: barnyardgrass (Echinochloa crus-galli, ECHCG); assay: as above; conditions: phytotoxicity rating 0-100 (0 no damage, 100 complete death), 14 days after application
In short: as §1

[6] = tested on: sicklepod (Cassia obtusifolia, CASOB); assay: as above; conditions: phytotoxicity rating 0-100 (0 no damage, 100 complete death), 14 days after application
In short: as §1

[7] = tested on: lambsquarters (Chenopodium album, CHEAL); assay: as above; conditions: phytotoxicity rating 0-100 (0 no damage, 100 complete death), 14 days after application
In short: as §1

[8] = tested on: ivyleaf morningglory (Ipomoea hederacea, IPOHE); assay: as above; conditions: phytotoxicity rating 0-100 (0 no damage, 100 complete death), 14 days after application
In short: as §1

[9] = tested on: johnsongrass (Sorghum halepense, SORHA); assay: as above; conditions: phytotoxicity rating 0-100 (0 no damage, 100 complete death), 14 days after application
In short: as §1

[10] = tested on: velvetleaf (Abutilon theophrasti, ABUTH); assay: as above; conditions: phytotoxicity rating 0-100 (0 no damage, 100 complete death), 14 days after application
In short: as §1

[11] = tested on: green foxtail (Setaria viridis, SETVI); assay: Pre-emerge test, greenhouse herbicide activity screening; conditions: pre-emerge, rated 14 days after application, 0 = no damage, 100 = complete death
In short: (§2)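 Compounds in acetone were track-sprayed at 15–1000 g ai/ha: pre-emergence onto soil sown the previous day, then top-watered to incorporate and later bottom-watered; post-emergence onto 2–3 leaf plants with 0.25% v/v surfactant, bottom-watered only. Ratings on a 0–100 phytotoxicity scale were taken at day 14.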

[12] = tested on: large crabgrass (Digitaria sanguinalis, DIGSA); assay: as above; conditions: pre-emerge, rated 14 days after application, 0 = no damage, 100 = complete death
In short: as §2

[13] = tested on: barnyardgrass (Echinochloa crus-galli, ECHCG); assay: as above; conditions: pre-emerge, rated 14 days after application, 0 = no damage, 100 = complete death
In short: as §2

[14] = tested on: sicklepod (Cassia obtusifolia, CASOB); assay: as above; conditions: pre-emerge, rated 14 days after application, 0 = no damage, 100 = complete death
In short: as §2

[15] = tested on: lambsquarters (Chenopodium album, CHEAL); assay: as above; conditions: pre-emerge, rated 14 days after application, 0 = no damage, 100 = complete death
In short: as §2

[16] = tested on: ivyleaf morningglory (Ipomoea hederacea, IPOHE); assay: as above; conditions: pre-emerge, rated 14 days after application, 0 = no damage, 100 = complete death
In short: as §2

[17] = tested on: johnsongrass (Sorghum halepense, SORHA); assay: as above; conditions: pre-emerge, rated 14 days after application, 0 = no damage, 100 = complete death
In short: as §2

[18] = tested on: velvetleaf (Abutilon theophrasti, ABUTH); assay: as above; conditions: pre-emerge, rated 14 days after application, 0 = no damage, 100 = complete death
In short: as §2

[19] = tested on: field corn (Zea mays L., var. Dekalb 535, CORN); assay: Post-emerge test, crop safety; conditions: phytotoxicity rating 0-100 (0 no damage, 100 complete death), 14 days after application
In short: (§3)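 Rating: 0–100 visual injury, 14 DAA. Application: acetone, 187 l/ha, 15–1000 g ai/ha, flat-fan track sprayer with nozzle 40–45 cm above soil or canopy. Post-emerge runs used 0.25% v/v surfactant on 2–3 leaf plants.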

[20] = tested on: upland rice (Oryza sp., var. Tebonnet, RICE); assay: Post-emerge test, crop safety; conditions: phytotoxicity rating 0-100 (0 no damage, 100 complete death), 14 days after application
In short: as §3

[21] = tested on: redroot pigweed (Amaranthus retroflexus, AMARE); assay: Pre-emerge test, greenhouse herbicide activity screening; conditions: pre-emerge, rated 14 days after application, 0 = no damage, 100 = complete death
In short: (§4)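 Herbicidal damage is scored 0 (none) to 100 (complete plant death) two weeks after a simulated field spray. Rates span 15–1000 g ai/ha, delivered in acetone at 187 l/ha. For post-emergence treatments, plants have 2–3 leaves and the spray carries 0.25% v/v non-ionic surfactant.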

[22] = tested on: field corn (Zea mays L., var. Dekalb 535, CORN); assay: Pre-emerge test, crop safety; conditions: pre-emerge, rated 14 days after application, 0 = no damage, 100 = complete death
In short: as §4

[23] = tested on: upland rice (Oryza sp., var. Tebonnet, RICE); assay: Pre-emerge test, crop safety; conditions: pre-emerge, rated 14 days after application, 0 = no damage, 100 = complete death
In short: as §4

`CCOC(=O)CC(=O)Nc1c(OC(=O)CC(=O)OCC)c(Cl)cc(F)c1-n1c(=O)cc(C(F)(F)F)n(C)c1=O` [2-16] was tested, and the “Post-emerge Herbicidal Activity AMARE” value ([1]; 63 g ai/ha) was 50, the “Post-emerge Herbicidal Activity AMARE” value ([1]; 250 g ai/ha) was 100 and the “Post-emerge Herbicidal Activity SETVI” value ([2]; 63 g ai/ha) was 50. For the same compound, the “Post-emerge Herbicidal Activity SETVI” value ([2]; 250 g ai/ha) was 100, the “Post-emerge Herbicidal Activity DIGSA” value ([3]; 63 g ai/ha) was 20 and the “Post-emerge Herbicidal Activity DIGSA” value ([3]; 250 g ai/ha) was 60. For the same compound, the “Post-emerge Herbicidal Activity AMBEL” value [4] was 100, the “Post-emerge Herbicidal Activity ECHCG” value ([5]; 63 g ai/ha) was 90 and the “Post-emerge Herbicidal Activity ECHCG” value ([5]; 250 g ai/ha) was 100. The “Post-emerge Herbicidal Activity CASOB” value ([6]; 63 g ai/ha) was 10, the “Post-emerge Herbicidal Activity CASOB” value ([6]; 250 g ai/ha) was 80 and the “Post-emerge Herbicidal Activity CHEAL” value ([7]; 63 g ai/ha) was 80. For the same compound, the “Post-emerge Herbicidal Activity CHEAL” value ([7]; 250 g ai/ha) was 100, the “Post-emerge Herbicidal Activity IPOHE” value ([8]; 63 g ai/ha) was 99 and the “Post-emerge Herbicidal Activity IPOHE” value ([8]; 250 g ai/ha) was 100. For the same compound, the “Post-emerge Herbicidal Activity SORHA” value ([9]; 63 g ai/ha) was 40, the “Post-emerge Herbicidal Activity SORHA” value ([9]; 250 g ai/ha) was 95 and the “Post-emerge Herbicidal Activity ABUTH” value ([10]; 63 g ai/ha) was 100. For the same compound, the “Post-emerge Herbicidal Activity ABUTH” value ([10]; 250 g ai/ha) was 100, the “Pre-emerge Herbicidal Activity SETVI (phytotoxicity rating, scale 0-100)” value ([11]; 63 g ai/ha) was 0 and the “Pre-emerge Herbicidal Activity SETVI (phytotoxicity rating, scale 0-100)” value ([11]; 250 g ai/ha) was 100. The “Pre-emerge Herbicidal Activity DIGSA (phytotoxicity rating, scale 0-100)” value ([12]; 63 g ai/ha) was 0, the “Pre-emerge Herbicidal Activity DIGSA (phytotoxicity rating, scale 0-100)” value ([12]; 250 g ai/ha) was 100 and the “Pre-emerge Herbicidal Activity ECHCG (phytotoxicity rating, scale 0-100)” value ([13]; 63 g ai/ha) was 0. For the same compound, the “Pre-emerge Herbicidal Activity ECHCG (phytotoxicity rating, scale 0-100)” value ([13]; 250 g ai/ha) was 40, the “Pre-emerge Herbicidal Activity CASOB (phytotoxicity rating, scale 0-100)” value ([14]; 63 g ai/ha) was 0 and the “Pre-emerge Herbicidal Activity CASOB (phytotoxicity rating, scale 0-100)” value ([14]; 250 g ai/ha) was 100. The “Pre-emerge Herbicidal Activity CHEAL (phytotoxicity rating, scale 0-100)” value ([15]; 63 g ai/ha) was 95, the “Pre-emerge Herbicidal Activity CHEAL (phytotoxicity rating, scale 0-100)” value ([15]; 250 g ai/ha) was 100 and the “Pre-emerge Herbicidal Activity IPOHE (phytotoxicity rating, scale 0-100)” value ([16]; 63 g ai/ha) was 0. The “Pre-emerge Herbicidal Activity IPOHE (phytotoxicity rating, scale 0-100)” value ([16]; 250 g ai/ha) was 90, the “Pre-emerge Herbicidal Activity SORHA (phytotoxicity rating, scale 0-100)” value ([17]; 63 g ai/ha) was 0 and the “Pre-emerge Herbicidal Activity SORHA (phytotoxicity rating, scale 0-100)” value ([17]; 250 g ai/ha) was 80. For the same compound, the “Pre-emerge Herbicidal Activity ABUTH (phytotoxicity rating, scale 0-100)” value ([18]; 63 g ai/ha) was 80, the “Pre-emerge Herbicidal Activity ABUTH (phytotoxicity rating, scale 0-100)” value ([18]; 250 g ai/ha) was 100 and the “Post-emerge Herbicidal Activity CORN (crop damage)” value ([19]; 63 g ai/ha) was 70. For the same compound, the “Post-emerge Herbicidal Activity CORN (crop damage)” value ([19]; 250 g ai/ha) was 90, the “Post-emerge Herbicidal Activity RICE (crop damage)” value ([20]; 63 g ai/ha) was 40 and the “Post-emerge Herbicidal Activity RICE (crop damage)” value ([20]; 250 g ai/ha) was 45. The “Pre-emerge Herbicidal Activity AMARE (phytotoxicity rating, scale 0-100)” value ([21]; 63 g ai/ha) was 50, the “Pre-emerge Herbicidal Activity AMARE (phytotoxicity rating, scale 0-100)” value ([21]; 250 g ai/ha) was 100 and the “Pre-emerge crop damage CORN (phytotoxicity rating, scale 0-100)” value ([22]; 63 g ai/ha) was 0. For the same compound, the “Pre-emerge crop damage CORN (phytotoxicity rating, scale 0-100)” value ([22]; 250 g ai/ha) was 20, the “Pre-emerge crop damage RICE (phytotoxicity rating, scale 0-100)” value ([23]; 63 g ai/ha) was 0 and the “Pre-emerge crop damage RICE (phytotoxicity rating, scale 0-100)” value ([23]; 250 g ai/ha) was 15.
